Test results reported in PMC8345109, “Optimization of New Catalytic Topoisomerase II Inhibitors as an Anti-Cancer Therapy” (Cancers, 2021).

How the values were obtained:
salmon sperm DNA = assay: Ethidium bromide displacement assay; format: binding; details: 100 µg/mL salmon sperm DNA, 2 µg/mL ethidium bromide
Method: (§1) (A) Ethidium bromide displacement assays were performed by mixing 100 µg/mL salmon sperm DNA with −/+2 µg/mL ethidium bromide and the indicated compounds. Reactions were subjected to fluorescence emission of 590 nm and excitation of 535 nm. Obtained signals were detected by using the Multimode Microplate Reader (Infinite F500). […] Reactions were subjected to 5–20% LED/excitation power and medium MST power using premium capillaries. Obtained signals were detected by using the Monolith NT.115 system. The change in thermophoresis is expressed as the change in the normalized fluorescence (ΔFnorm). MST assays were repeated with two control compounds, enzalutamide (Enza) and merbarone.

human TOP2A(431-1193) [1] = biological target: T1, human TOP2A(431-1193) (Homo sapiens, UniProt P11388); assay: Microscale thermophoresis (MST) binding assay; details: 5 nM NT647-labelled TOP2A(431-1193)
T1 construct: 6xHis (N); made in house; host or cells: E. coli BL21 (DE3)
T1 sequence (P11388 431-1193): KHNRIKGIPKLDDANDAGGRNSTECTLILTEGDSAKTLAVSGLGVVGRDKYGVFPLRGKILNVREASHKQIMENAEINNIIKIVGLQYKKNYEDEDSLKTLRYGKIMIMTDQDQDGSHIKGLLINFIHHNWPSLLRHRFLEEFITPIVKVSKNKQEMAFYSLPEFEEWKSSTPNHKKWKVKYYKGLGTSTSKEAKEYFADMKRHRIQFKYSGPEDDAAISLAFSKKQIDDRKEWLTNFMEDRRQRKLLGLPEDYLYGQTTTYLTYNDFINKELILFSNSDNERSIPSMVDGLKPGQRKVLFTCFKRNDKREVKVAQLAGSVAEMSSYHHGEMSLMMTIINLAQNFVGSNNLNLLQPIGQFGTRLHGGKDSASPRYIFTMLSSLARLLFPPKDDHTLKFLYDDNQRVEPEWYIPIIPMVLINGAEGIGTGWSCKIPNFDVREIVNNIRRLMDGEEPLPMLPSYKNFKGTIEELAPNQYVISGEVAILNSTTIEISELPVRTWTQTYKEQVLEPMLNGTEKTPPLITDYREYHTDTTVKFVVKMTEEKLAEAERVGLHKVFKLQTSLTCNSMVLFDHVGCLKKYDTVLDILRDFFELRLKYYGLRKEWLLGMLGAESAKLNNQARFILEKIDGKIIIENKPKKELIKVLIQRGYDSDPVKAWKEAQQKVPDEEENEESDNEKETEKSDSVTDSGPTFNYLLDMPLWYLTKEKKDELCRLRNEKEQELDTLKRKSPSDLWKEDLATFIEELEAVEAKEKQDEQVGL
Method: It was transformed into BL21 (DE3) E. coli cells and induced by 0.5 mM IPTG for 16 h at 16 °C. Cells were lysed by sonication and protein purification was by chromatography with the Ni-NTA beads (Invitrogen), followed by a size exclusion chromatography (Superdex 200). […] A serial dilution of the inhibitors was prepared with 100% DMSO and subsequently mixed with the labeled fluorescent protein in the assay buffer (20 mM Tris pH 8.0, 100 mM NaCl, 0.1% NP40, 0.2 mM TCEP, and 0.1 mM PMSF) at the final concentrations of 0.015–500 uM. The final concentration of the protein was 5 nM. The labeled protein and small molecules mix were allowed to incubate in the dark at room temperature for 5 min before filling the capillaries. MST assays were performed with 5–20% LED/excitation power and medium MST power using premium capillaries for Monolith NT.115. The data for the estimation of Kd were analyzed using MO Affinity Analysis software from Nanotemper.
as §1

human TOP2A(431-1193) [2] = biological target: T1, human TOP2A(431-1193); assay: EMSA, TOP2A(431-1193) with 5ZRF DNA oligo; format: binding; details: 2 uM protein, 300 nM oligo
human TOP2A(431-1193) [3] = biological target: T1, human TOP2A(431-1193); assay: Fluorescence polarization (FP) assay of TOP2A-DNA interaction; format: binding; details: 500 nM protein, 0.01-200 µM compound
Method: Fluorescent polarization assay was performed in Corning® Low Volume 384-well Black Flat Bottom microplate. […] Triplicate reactions were transferred onto the microplate and incubated at room temperature for 20 min. Fluorescence polarization (FP) measurements were taken by Tecan Infinite F500 with the excitation wavelength of 485 nm and emission wavelength of 535 nm.
(§2) (A) EMSA was performed by purified full-length TOP2A or TOP2B proteins at a contraction of 300 nM with IRDay700 labeled 5ZRF DNA oligo at a concentration of 100 nM in the presence of −/+200 µM of ICRF193, T60, T637, and T638. […] Reactions were subjected to fluorescence […], which were detected by using the Multimode Microplate Reader (Infinite F500). (D) DNA cleavage assays were performed using full-length human TOP2A and TOP2B incubated with the supercoiled pHOT plasmid in the presence of 200 µM of etoposide plus 1, 100, or 200 µM of ICRF193, T60, T637, and T638. Reactions were separated on a DNA gel with ethidium bromide. All experiments were repeated three times, and one representative image was shown. Note: N, nicked DNA; L, linear DNA; and SC, supercoiled DNA.

full-length TOP2A [4] = biological target: T2, full-length TOP2A (Homo sapiens, UniProt P11388); assay: EMSA, full-length TOP2A with 5ZRF DNA oligo; format: binding; parameters: EMSA was performed by purified full-length TOP2A or TOP2B proteins; details: 200 µM compound, 300 nM protein, 100 nM oligo
T2 sequence (P11388 whole entry): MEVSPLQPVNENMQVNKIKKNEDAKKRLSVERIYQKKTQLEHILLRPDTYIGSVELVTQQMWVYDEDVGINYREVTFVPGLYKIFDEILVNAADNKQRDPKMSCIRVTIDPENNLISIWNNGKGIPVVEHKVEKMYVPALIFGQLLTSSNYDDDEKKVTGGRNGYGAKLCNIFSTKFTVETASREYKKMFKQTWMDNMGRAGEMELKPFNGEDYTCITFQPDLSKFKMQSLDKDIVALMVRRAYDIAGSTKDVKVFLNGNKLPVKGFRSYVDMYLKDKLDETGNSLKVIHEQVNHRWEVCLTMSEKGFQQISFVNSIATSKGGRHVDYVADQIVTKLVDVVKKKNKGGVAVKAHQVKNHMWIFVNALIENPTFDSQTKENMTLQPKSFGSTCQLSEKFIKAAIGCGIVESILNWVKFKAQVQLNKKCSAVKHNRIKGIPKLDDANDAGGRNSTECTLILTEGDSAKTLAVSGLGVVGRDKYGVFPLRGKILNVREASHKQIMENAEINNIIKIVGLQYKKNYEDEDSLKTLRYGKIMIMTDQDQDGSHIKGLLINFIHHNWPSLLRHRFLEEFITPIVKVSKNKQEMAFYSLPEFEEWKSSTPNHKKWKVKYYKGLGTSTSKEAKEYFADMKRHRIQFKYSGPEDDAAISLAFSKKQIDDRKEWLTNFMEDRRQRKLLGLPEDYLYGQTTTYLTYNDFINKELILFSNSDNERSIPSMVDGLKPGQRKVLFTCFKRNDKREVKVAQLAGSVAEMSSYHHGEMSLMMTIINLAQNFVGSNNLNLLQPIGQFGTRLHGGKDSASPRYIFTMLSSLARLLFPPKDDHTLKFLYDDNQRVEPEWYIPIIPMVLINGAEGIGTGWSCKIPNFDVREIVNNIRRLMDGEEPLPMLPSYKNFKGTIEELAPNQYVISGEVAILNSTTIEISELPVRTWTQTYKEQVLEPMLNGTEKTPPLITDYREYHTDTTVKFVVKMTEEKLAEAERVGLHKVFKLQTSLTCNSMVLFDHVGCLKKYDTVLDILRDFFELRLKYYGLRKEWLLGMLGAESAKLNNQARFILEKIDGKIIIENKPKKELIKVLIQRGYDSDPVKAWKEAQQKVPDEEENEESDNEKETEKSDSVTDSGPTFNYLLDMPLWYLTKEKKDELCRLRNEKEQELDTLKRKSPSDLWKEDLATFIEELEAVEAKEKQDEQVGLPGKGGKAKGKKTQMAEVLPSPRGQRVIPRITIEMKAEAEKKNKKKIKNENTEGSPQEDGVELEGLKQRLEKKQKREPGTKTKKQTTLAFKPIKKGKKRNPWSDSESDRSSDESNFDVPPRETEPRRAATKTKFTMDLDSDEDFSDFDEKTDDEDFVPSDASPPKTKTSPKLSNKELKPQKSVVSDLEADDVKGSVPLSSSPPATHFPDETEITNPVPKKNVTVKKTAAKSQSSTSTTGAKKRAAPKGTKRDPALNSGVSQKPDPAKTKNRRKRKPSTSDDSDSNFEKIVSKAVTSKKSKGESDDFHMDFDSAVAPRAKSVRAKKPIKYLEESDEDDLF
Method: as §2

full-length TOP2A [5] = biological target: T2, full-length TOP2A; assay: DNA cleavage assay, TOP2A; format: biochemical; parameters: DNA cleavage assays were performed using full-length human TOP2A and TOP2B; details: 200 µM etoposide plus 1, 100 or 200 µM compound, pHOT plasmid
Method: as §2

full-length TOP2B = full-length TOP2B (Homo sapiens, UniProt Q02880); assay: DNA cleavage assay, TOP2B; format: biochemical; parameters: DNA cleavage assays were performed using full-length human TOP2A and TOP2B; details: 200 µM etoposide plus 1, 100 or 200 µM compound, pHOT plasmid
Sequence of full-length TOP2B (Q02880 whole entry): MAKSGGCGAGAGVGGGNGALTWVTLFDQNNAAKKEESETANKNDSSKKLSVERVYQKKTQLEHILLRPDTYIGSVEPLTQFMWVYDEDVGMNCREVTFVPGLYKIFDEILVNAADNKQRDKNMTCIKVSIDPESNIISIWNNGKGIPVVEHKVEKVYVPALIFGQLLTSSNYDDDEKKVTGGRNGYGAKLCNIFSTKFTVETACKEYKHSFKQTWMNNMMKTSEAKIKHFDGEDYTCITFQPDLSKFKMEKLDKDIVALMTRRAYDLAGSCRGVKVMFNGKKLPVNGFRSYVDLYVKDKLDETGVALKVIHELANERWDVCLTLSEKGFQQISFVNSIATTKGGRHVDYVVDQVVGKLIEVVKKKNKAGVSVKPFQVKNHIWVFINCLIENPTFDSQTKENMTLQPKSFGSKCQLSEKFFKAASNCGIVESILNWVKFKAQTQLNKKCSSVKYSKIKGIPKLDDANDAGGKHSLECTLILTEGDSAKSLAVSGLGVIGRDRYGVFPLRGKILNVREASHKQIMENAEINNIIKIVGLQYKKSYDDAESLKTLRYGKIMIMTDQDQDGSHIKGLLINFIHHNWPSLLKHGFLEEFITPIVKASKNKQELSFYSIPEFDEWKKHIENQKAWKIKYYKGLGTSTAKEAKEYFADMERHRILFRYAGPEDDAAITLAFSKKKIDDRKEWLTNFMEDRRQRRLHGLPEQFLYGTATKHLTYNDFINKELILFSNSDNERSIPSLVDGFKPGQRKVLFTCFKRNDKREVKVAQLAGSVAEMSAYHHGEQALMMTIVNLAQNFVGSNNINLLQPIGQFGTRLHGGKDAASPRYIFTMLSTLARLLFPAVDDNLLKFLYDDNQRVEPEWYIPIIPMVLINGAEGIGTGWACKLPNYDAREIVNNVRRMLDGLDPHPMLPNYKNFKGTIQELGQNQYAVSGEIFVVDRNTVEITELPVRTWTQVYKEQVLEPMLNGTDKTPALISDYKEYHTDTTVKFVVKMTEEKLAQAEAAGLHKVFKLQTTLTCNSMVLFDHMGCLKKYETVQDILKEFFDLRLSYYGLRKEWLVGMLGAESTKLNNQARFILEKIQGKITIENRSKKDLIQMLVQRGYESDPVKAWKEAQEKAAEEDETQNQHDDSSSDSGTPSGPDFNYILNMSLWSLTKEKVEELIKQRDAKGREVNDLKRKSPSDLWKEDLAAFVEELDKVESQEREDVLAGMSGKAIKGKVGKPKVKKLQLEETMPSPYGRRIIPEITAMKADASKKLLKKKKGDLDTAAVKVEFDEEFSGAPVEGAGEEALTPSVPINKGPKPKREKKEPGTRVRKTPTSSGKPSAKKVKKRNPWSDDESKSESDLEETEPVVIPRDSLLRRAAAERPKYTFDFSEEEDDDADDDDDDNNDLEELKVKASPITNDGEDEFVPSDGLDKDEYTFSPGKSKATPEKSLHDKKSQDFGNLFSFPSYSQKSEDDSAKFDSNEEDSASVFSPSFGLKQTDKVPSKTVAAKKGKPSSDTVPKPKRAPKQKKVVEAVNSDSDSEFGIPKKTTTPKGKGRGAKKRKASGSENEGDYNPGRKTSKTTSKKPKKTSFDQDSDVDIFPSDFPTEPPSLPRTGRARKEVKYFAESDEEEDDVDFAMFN
Method: as §2

TOP2A(431-1193) = TOP2A(431-1193) (Homo sapiens, UniProt P11388 431-1193); assay: fluorescence polarization; merbarone 0.01-200 uM; 3 mM Mg2+; FP: 20 mM HEPES-NaOH pH 7.4, 2 mM DTT, 3 mM MgCl2, 0.05% NP-40, protease inhibitors, room temperature 20 min; EMSA buffer not in material; details: protein: recombinant; tags: N-terminal 6xHis (pET28a); label: 3' 6-FAM (Results text says NT474 dye); blunt; self-complementary 20-mer, 2 copies
Sequence of TOP2A(431-1193) (P11388 431-1193): as the sequence (P11388 431-1193) above

Molecule: COc1cc(NS(C)(=O)=O)ccc1Nc1c2ccccc2nc2ccccc12 [m-AMSA, amsacrine, reference compound]
- Fluorescence induced by the ethidium bromide/DNA complex reduced by increasing doses (DNA intercalation) (salmon sperm DNA): reduced

Molecule: O=C1NC(=S)NC(=O)C1C(=O)Nc1ccccc1 [merbarone, reference compound]
- Binding to TOP2A(431-1193) by MST (change of thermophoresis), in words (human TOP2A(431-1193) [1]): no interaction
- Inhibition of TOP2A(431-1193)-DNA interaction (EMSA) (human TOP2A(431-1193) [2]): did not affect the formation of the TOP2–DNA complex
- Effect on TOP2A-DNA interaction (FP) (human TOP2A(431-1193) [3]): did not affect TOP2A–DNA interaction

Molecule: ICRF193 [reference compound]
- Block of TOP2A-DNA oligo complex formation (EMSA) (full-length TOP2A [4]): not
- Prevention of etoposide-induced DNA cleavage, TOP2A (full-length TOP2A [5]): did not prevent etoposide-induced DNA cleavage
- Prevention of etoposide-induced DNA cleavage, TOP2B (full-length TOP2B): did not prevent etoposide-induced DNA cleavage

B1: 5ZRF DNA oligo (FAM) (dsDNA)
DNA 1: AGCCGAGCTGCAGCTCGGCT
DNA 2: AGCCGAGCTGCAGCTCGGCT
- binding result (TOP2A(431-1193)): binds
